From patent US12421254B2, “KRAS modulators and uses thereof” (Quanta Therapeutics, Inc., priority 2023, dated 2025)

What was measured:
[1] = biological target: GST-tagged KRAS-G12V (2-169) (Homo sapiens, UniProt P01116, G12V); experiment: Nucleotide exchange assay (NEA), SOS-mediated, HTRF, KRAS G12V; type: biochemical; conditions: Table 4; IC50 extracted at 90 min; 80 nM SOS
Method in brief: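 Exchange onto fluorescent GTP-DY-647P1 (150 nM final) catalysed by 80 nM SOS1cat was followed by Tb-anti-GST HTRF at RT for up to 90 min, after 1 h compound pre-incubation with 0.25 nM GST-tagged KRAS-G12V (2-169), pH 7.3. DMSO = 0%, no-SOS blank = 100%; 4-parameter IC50 taken at 90 min.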

[2] = biological target: GST-tagged KRAS-G12D (2-169) (Homo sapiens, UniProt P01116, G12D); experiment: Nucleotide exchange assay (NEA), SOS-mediated, HTRF, KRAS G12D; type: biochemical; conditions: Table 4; IC50 extracted at 30 min; 20 nM SOScat; read-out: NEA G12D IC50
Method in brief: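 SOS1cat-driven loading of fluorescent GTP-DY-647P1 (150 nM) onto GST-KRAS-G12D (2-169, 0.25 nM) read by time-resolved FRET; SOScat 20 nM, compound preincubated with KRAS 1 h at RT. Signal blanked to no-SOS reactions, normalized to DMSO; IC50 fitted from the 30-min read.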

Chain of GST-tagged KRAS-G12V (2-169) (P01116 2-169 isoform P01116-2 G12V): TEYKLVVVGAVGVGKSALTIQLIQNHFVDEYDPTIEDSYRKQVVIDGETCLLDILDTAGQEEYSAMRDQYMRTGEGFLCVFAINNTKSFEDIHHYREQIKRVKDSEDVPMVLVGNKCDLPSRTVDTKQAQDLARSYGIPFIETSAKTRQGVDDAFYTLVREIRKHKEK
Chain of GST-tagged KRAS-G12D (2-169) (P01116 2-169 isoform P01116-2 G12D): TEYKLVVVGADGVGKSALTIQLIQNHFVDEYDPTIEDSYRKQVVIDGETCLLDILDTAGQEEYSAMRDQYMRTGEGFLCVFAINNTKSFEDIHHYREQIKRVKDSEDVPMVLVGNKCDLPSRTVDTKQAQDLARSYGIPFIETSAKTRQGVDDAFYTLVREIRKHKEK

## CC(c1n[nH]cc1N)N(C)c1nc(OC[C@@]23CCCN2C[C@H](F)C3)nc(N2CC3(C2)SCc2sc(N)c(C#N)c23)n1 (stereo partly drawn) [Compound 192, 2-amino-1′-[4-[1-(4-amino-1H-pyrazol-3-yl)ethyl-methyl-amino]-6-[[(2R,8S)-2-fluoro-1,2,3,5,6,7-hexahydropyrrolizin-8-yl]methoxy]-1,3,5-triazin-2-yl]spiro[6H-thieno[2,3-c]thiophene-4,3′-azetidine]-3-carbonitrile]
[1]
  IC50: 10 to 100 nM
[2]
  IC50: 100 to 1000 nM

## N#Cc1c(N)sc2c1C1(CN(c3nc(OCC4(CN5CCOCC5)CC4)nc(N4CCNC[C@@H]4C(F)F)n3)C1)SC2 [Compound 193, (R)-2′-amino-1-(4-(2-(difluoromethyl)piperazin-1-yl)-6-((1-(morpholinomethyl)cyclopropyl)methoxy)-1,3,5-triazin-2-yl)-6′H-spiro[azetidine-3,4′-thieno[3,4-b]thiophene]-3′-carbonitrile]
[1]
  IC50: 10 to 100 nM
[2]
  IC50: < 10 nM

## C[C@H](c1cccnc1N)N(C)c1nc(OC[C@@]23CCCN2C[C@H](F)C3)nc(N2CCC3(CCc4sc(N)c(C#N)c43)C2)n1 (stereo partly drawn) [Compound 195, 2-amino-1′-[4-[methyl-[(1R)-1-(2-amino-3-pyridyl)ethyl]amino]-6-[[(2R,8S)-2-fluoro-1,2,3,5,6,7-hexahydropyrrolizin-8-yl]methoxy]-1,3,5-triazin-2-yl]spiro[5,6-dihydrocyclopenta[b]thiophene-4,3′-pyrrolidine]-3-carbonitrile]
[1]
  IC50: < 10 nM
[2]
  IC50: 10 to 100 nM

## C[C@H](c1cccnc1N)N(CC(F)F)c1nc(OC[C@@H]2C[C@@H](F)CN2C)nc(N2CC3(C2)SCc2sc(N)c(C#N)c23)n1 [Compound 197, 2′-amino-1-(4-(((R)-1-(2-aminopyridin-3-yl)ethyl)(2,2-difluoroethyl)amino)-6-(((2S,4R)-4-fluoro-1-methylpyrrolidin-2-yl)methoxy)-1,3,5-triazin-2-yl)-6′H-spiro[azetidine-3,4′-thieno[3,4-b]thiophene]-3′-carbonitrile]
[1]
  IC50: < 10 nM
[2]
  IC50: < 10 nM

## CCN(c1nc(OCC2(CN(C)C)CC2(F)F)nc(N2CC3(C2)SCc2sc(N)c(C#N)c23)n1)[C@H](C)c1cccnc1N (stereo partly drawn) [Compound 198, 2-amino-1′-[4-[[(1R)-1-(2-amino-3-pyridyl)ethyl]-ethyl-amino]-6-[[1-[(dimethylamino)methyl]-2,2-difluoro-cyclopropyl]methoxy]-1,3,5-triazin-2-yl]spiro[6H-thieno[3,4-b]thiophene-4,3′-azetidine]-3-carbonitrile]
[1]
  IC50: < 10 nM
[2]
  IC50: < 10 nM

## C[C@H](c1cccnc1N)N(CC(N)=O)c1nc(OC[C@@]23CCCN2C[C@H](F)C3)nc(N2CC3(C2)SCc2sc(N)c(C#N)c23)n1 [Compound 199, 2-[[4-(2-amino-3-cyano-spiro[6H-thieno[3,4-b]thiophene-4,3′-azetidine]-1′-yl)-6-[[(2R,8S)-2-fluoro-1,2,3,5,6,7-hexahydropyrrolizin-8-yl]methoxy]-1,3,5-triazin-2-yl]-[(1R)-1-(2-amino-3-pyridyl)ethyl]amino]acetamide]
[1]
  IC50: < 10 nM
[2]
  IC50: < 10 nM

## CC(c1cccnc1C(F)F)N(C)c1nc(OC[C@@]23CCCN2C[C@H](F)C3)nc(N2CC3(C2)SCc2sc(N)c(C#N)c23)n1 (stereo partly drawn) [Compound 205, 2-amino-1′-[4-[1-[2-(difluoromethyl)-3-pyridyl]ethyl-methyl-amino]-6-[[(2R,8S)-2-fluoro-1,2,3,5,6,7-hexahydropyrrolizin-8-yl]methoxy]-1,3,5-triazin-2-yl]spiro[6H-thieno[3,4-b]thiophene-4,3′-azetidine]-3-carbonitrile]
[1]
  IC50: 100 to 1000 nM
[2]
  IC50: 1000 to 20000 nM

## CCN(c1nc(OCC2(CO)CCCN2)nc(N2CC3(C2)SCc2sc(N)c(C#N)c23)n1)[C@H](C)c1cccnc1N (stereo partly drawn) [Compound 208, 2-amino-1′-[4-[[(1R)-1-(2-amino-3-pyridyl)ethyl]-ethyl-amino]-6-[[2-(hydroxymethyl)pyrrolidin-2-yl]methoxy]-1,3,5-triazin-2-yl]spiro[6H-thieno[3,4-b]thiophene-4,3′-azetidine]-3-carbonitrile]
[1]
  IC50: < 10 nM
[2]
  IC50: < 10 nM

## CCN(c1nc(OC[C@@]23CCCN2C[C@H](F)C3)nc(N2CC3(C2)c2c(sc(N)c2C#N)C2CC23)n1)[C@H](C)c1cccnc1N (stereo partly drawn) [Compound 212, 8-amino-1′-[4-[[(1R)-1-(2-amino-3-pyridyl)ethyl]-ethyl-amino]-6-[[(2R,8S)-2-fluoro-1,2,3,5,6,7-hexahydropyrrolizin-8-yl]methoxy]-1,3,5-triazin-2-yl]spiro[9-thiatricyclo[4.3.0.02,4]nona-1(6),7-diene-5,3′-azetidine]-7-carbonitrile]
[1]
  IC50: < 10 nM
[2]
  IC50: < 10 nM

## CCN(c1nc(OC[C@]23CC[C@H](CN(C)C2)N3)nc(N2CC3(C2)SCc2sc(N)c(C#N)c23)n1)[C@H](C)c1cccnc1N [Compound 214, 2′-amino-1-(4-(((R)-1-(2-aminopyridin-3-yl)ethyl)(ethyl)amino)-6-(((1S,5R)-3-methyl-3,8-diazabicyclo[3.2.1]octan-1-yl)methoxy)-1,3,5-triazin-2-yl)-6′H-spiro[azetidine-3,4′-thieno[3,4-b]thiophene]-3′-carbonitrile]
[1]
  IC50: < 10 nM
[2]
  IC50: < 10 nM

## CN(CC(=O)NC(=N)N)c1nc(OC[C@@]23CCCN2C[C@H](F)C3)nc(N2CC3(C2)SCc2sc(N)c(C#N)c23)n1 [Compound 215, 2-[[4-(2-amino-3-cyano-spiro[6H-thieno[3,4-b]thiophene-4,3′-azetidine]-1′-yl)-6-[[(2R,8S)-2-fluoro-1,2,3,5,6,7-hexahydropyrrolizin-8-yl]methoxy]-1,3,5-triazin-2-yl]-methyl-amino]-N-carbamimidoyl-acetamide]
[1]
  IC50: 100 to 1000 nM
[2]
  IC50: 100 to 1000 nM

## N#Cc1c(N)sc2c1C1(CN(c3nc(OC[C@@]45CCCN4C[C@H](F)C5)nc(N(Cc4cccnc4N)C4COC4)n3)C1)SC2 [Compound 217, 2-amino-1′-[4-[(2-amino-3-pyridyl)methyl-(oxetan-3-yl)amino]-6-[[(2R,8S)-2-fluoro-1,2,3,5,6,7-hexahydropyrrolizin-8-yl]methoxy]-1,3,5-triazin-2-yl]spiro[6H-thieno[3,4-b]thiophene-4,3′-azetidine]-3-carbonitrile]
[1]
  IC50: 100 to 1000 nM
[2]
  IC50: 1000 to 20000 nM

## CCN(c1nc(OCC23CCC(CN(C)C2)N3C)nc(N2CC3(C2)SCc2sc(N)c(C#N)c23)n1)[C@H](C)c1cccnc1N (stereo partly drawn) [Compound 218, 2′-amino-1-(4-(((R)-1-(2-aminopyridin-3-yl)ethyl)(ethyl)amino)-6-((3,8-dimethyl-3,8-diazabicyclo[3.2.1]octan-1-yl)methoxy)-1,3,5-triazin-2-yl)-6′H-spiro[azetidine-3,4′-thieno[3,4-b]thiophene]-3′-carbonitrile]
[1]
  IC50: < 10 nM
[2]
  IC50: 10 to 100 nM

## C[C@H](c1cccnc1N)N(CC(F)F)c1nc(OCC2(CN(C)C)CC2(F)F)nc(N2CC3(C2)SCc2sc(N)c(C#N)c23)n1 (stereo partly drawn) [Compound 220, 2-amino-1′-[4-[[(1R)-1-(2-amino-3-pyridyl)ethyl]-(2,2-difluoroethyl)amino]-6-[[1-[(dimethylamino)methyl]-2,2-difluoro-cyclopropyl]methoxy]-1,3,5-triazin-2-yl]spiro[6H-thieno[3,4-b]thiophene-4,3′-azetidine]-3-carbonitrile]
[1]
  IC50: < 10 nM
[2]
  IC50: < 10 nM

## CCN(c1nc(OC[C@]2(C(F)F)CCCN2)nc(N2CC3(C2)SCc2sc(N)c(C#N)c23)n1)[C@H](C)c1cccnc1N [Compound 221, 2-amino-1′-[4-[[(1R)-1-(2-amino-3-pyridyl)ethyl]-ethyl-amino]-6-[[(2S)-2-(difluoromethyl)pyrrolidin-2-yl]methoxy]-1,3,5-triazin-2-yl]spiro[6H-thieno[3,4-b]thiophene-4,3′-azetidine]-3-carbonitrile]
[1]
  IC50: < 10 nM
[2]
  IC50: < 10 nM

## CCN(c1nc(OCC2(COC)CCCC2)nc(N2CC3(C2)SCc2sc(N)c(C#N)c23)n1)[C@H](C)c1cccnc1N [Compound 222, 2-amino-1′-[4-[[(1R)-1-(2-amino-3-pyridyl)ethyl]-ethyl-amino]-6-[[1-(methoxymethyl)cyclopentyl]methoxy]-1,3,5-triazin-2-yl]spiro[6H-thieno[3,4-b]thiophene-4,3′-azetidine]-3-carbonitrile]
[1]
  IC50: 100 to 1000 nM
[2]
  IC50: 1000 to 20000 nM

## CC(c1ccc[n+]([O-])c1)N(C)c1nc(OC[C@@]23CCCN2C[C@H](F)C3)nc(N2CC3(C2)SCc2sc(N)c(C#N)c23)n1 (stereo partly drawn) [Compound 224, 3-(1-((4-(2′-amino-3′-cyano-6′H-spiro[azetidine-3,4′-thieno[3,4-b]thiophen]-1-yl)-6-(((2R,7aS)-2-fluorotetrahydro-1H-pyrrolizin-7a(5H)-yl)methoxy)-1,3,5-triazin-2-yl)(methyl)amino)ethyl)pyridine 1-oxide]
[1]
  IC50: 10 to 100 nM
[2]
  IC50: 10 to 100 nM

## CCN(c1nc(OCC2(CN(C)C)CCCN2)nc(N2CC3(C2)SCc2sc(N)c(C#N)c23)n1)[C@H](C)c1cccnc1N (stereo partly drawn) [Compound 225, 2-amino-1′-[4-[[(1R)-1-(2-amino-3-pyridyl)ethyl]-ethyl-amino]-6-[[2-[(dimethylamino)methyl]pyrrolidin-2-yl]methoxy]-1,3,5-triazin-2-yl]spiro[6H-thieno[3,4-b]thiophene-4,3′-azetidine]-3-carbonitrile]
[1]
  IC50: < 10 nM
[2]
  IC50: 10 to 100 nM
